The structures appear in SMILES notation.

These results are taken from patent US7906675B2, “Compounds for the treatment of metabolic disorders” (Wellstat Therapeutics Corporation, priority 2003, dated 2011).

The test has as its system C57BL/Ksola (db/db) mice. In words: Antidiabetic effects in db/db diabetic mouse model. The format is in vivo. The settings on record: serum, 60 mg/kg daily oral for 17 days. The source says:
C57BL/Ksola (db/db) mice have a defect in leptin signaling, leading to hyperphagia, obesity, hypertriglyceridemia, and diabetes. Moreover, unlike ob/ob mice on a C57BL/6J background, db/db mice on a C57BLKS background undergo failure of their insulin-producing pancreatic islet cells, resulting in progression from hyperinsulinemia (associated with peripheral insulin resistance) to hypoinsulinemic diabetes.
Male obese (db/db homozygote) C57BL/Ksola mice approximately 8 weeks of age, were obtained from Jackson Labs (Bar Harbor, Me.) and sorted into groups of 7 animals each animals such that the body weights (40-45 g) and serum glucose levels (≧300 mg/dl in fed state) were similar between groups. A minimum of 7 days was allowed for adaptation after arrival. All animals were maintained under controlled temperature (23° C.), relative humidity (50±5%) and light (7:00-19:00), and allowed free access to standard chow (Formulab Diet 5008, Quality Lab Products, Elkridge, Md.) and water.
Groups of mice received daily oral doses of vehicle (1% hydroxypropylmethylcellulose) or Compound CS (60 mg/kg) for 17 days. At the end of the treatment period, blood samples were collected and serum glucose, triglycerides, and free fatty acids were measured.

`Cc1cccc(C)c1CSc1ccc(C(=O)CCC(=O)O)cc1` [Compound CS, 4-(4-[(2,6-Dimethylbenzyl)-thio]-phenyl)-4-oxobutyric acid]: the “Free Fatty Acids” value stood at 2034 ± 195 µM and the Triglycerides was 150 ± 10 mg/dL. The Glucose (±SEM) was 593 ± 77 mg/dL.
